In PubChem BioAssay (NCI) one finds TGI and GI50 data, which are given here for 28 compounds.

The structures appear in SMILES notation. Values joined by “and” are separate entries in the source; they are usually repeats but may differ in a detail not shown here. Equal entries are not always repeated.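 Assay format: 96-well plates, 48-hour exposure. At the GI50, growth is halved. At the TGI there is no net growth.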

The subject of one assay is 786-0 renal. Kind of assay: NCI tumour cell line growth inhibition, 48 h.
Turning to `O=c1[nH]nc(Cc2ccc([N+](=O)[O-])cc2)n1CCO`, the TGI is > 100 µM.
As to `c1cc2nnnn2nc1N1CCCC1`, the TGI is > 100 µM.
Still for that read-out and setting: the same measure for `N#Cc1c(-c2ccccc2)nc(-c2ccccc2)sc1=S`: > 100 µM.
On to `CCn1nc2c3c(ncn3C(C)(C)O2)c1=O`, for which the TGI was > 100 µM.
Same read-out and setting: the value for `CCC(C#N)NC(=O)NC(C#N)CC` (stereo unspecified) was > 100 µM.
Consider `CCc1ccc2oc(-c3cc(O)c(-c4nc5cc(CC)ccc5o4)cc3O)nc2c1`, for which the TGI is > 100 µM.
The same measure, in the same setting: the value for `CCOC(=O)/C=C(/C(=O)OCC)n1ccc(N)nc1=O` was > 100 µM.
With `CC(=O)O[C@H]1C#C/C=C\C#CC[C@@H]2C(=O)N[C@@H]12`, the TGI was > 88.3 µM.
Same read-out and setting: the value for `CCCSc1ccc2[nH]c(/N=C/c3ccco3)cc2c1` was > 100 µM; that for `Cc1ccc2c(c1)[nH]c1cc(C(F)(F)F)ccc1[p+]2=O` (stereo unspecified) was > 100 µM.
Take `CN(O)C(=O)c1cccc(Cl)c1`: the TGI is > 100 µM.
On the same count and under the same terms, the value for `CCC1(C)N=C(c2cnccn2)NN1c1ccc(Cl)cc1` (stereo unspecified) was > 100 µM.
Take `C1CNCCNCCN1`: the TGI was > 100 µM.
Consider `O=c1nc2c(c(-c3ccccc3Cl)[nH]1)COC/C2=C\c1ccccc1Cl`, for which the TGI is > 100 µM.

For the next assay, the system named is NCI-H23 lung. Kind of assay: NCI tumour cell line growth inhibition, 48 h.
As for `Cc1ccc(/C(O)=C/C(=O)C(=O)/C=C(\O)c2ccc(C)cc2C)c(C)c1`, the TGI was 3.5 µM.
Still for that read-out and setting: the value for `O=C(NCCCCCCNCc1cccc2ccccc12)Nc1cccc2ccccc12` was > 100 µM; that for `Cc1ccc([C@H]2CC(=O)C[C@H](c3ccc(C)cc3)C23C(=O)c2ccccc2C3=O)cc1` was > 100 µM.
The same measure, in the same setting: the same measure for `O=c1c2ncn(COCCCl)c2n(-c2ccccc2)c(=S)n1-c1ccccc1`: > 100 µM; for `COc1ccc(/C=N/N=C(\N)NO)c(O)c1`: > 10 µM; for `CC1(CF)SCc2nc3ccccc3n21` (stereo unspecified): > 100 µM.
Still for that read-out and setting: the same measure for `NCCSc1nc2ccccc2c(=O)n1-c1ccccc1`: > 100 µM.
In turn, `Nc1cccc(Nc2nc3ccccc3nc2NS(=O)(=O)c2ccccc2)c1` showed a TGI of 42.6 µM.
The same measure, in the same setting: the value for `COC(=O)C1=CC(=O)OC1(OO)c1ccccc1` (stereo unspecified) was > 100 µM.
On the same count and under the same terms, the same measure for `CN(C)Cc1cc(C(=O)/C=C/c2ccccc2Cl)cc(CN(C)C)c1O`: 35 µM; for `O=C1NC(N/N=C/C(O)C(O)C(O)CO)=N/C1=C\c1ccco1` (stereo unspecified): > 100 µM.
As for `COc1cc(CNc2ccc(SC)cc2)cc(OC)c1OC`, the GI50 was 14.6 µM and 6.14 µM; the TGI is 44 µM and 46.7 µM.
For `Nc1ccc(N=Nc2ccccc2)cc1`, the TGI is > 100 µM.
For the compound `Cc1ccn2c(=O)cc(-c3ccccc3)nc2c1`, the TGI was > 100 µM.
Turning to `O=c1[nH]nc(Cc2ccc([N+](=O)[O-])cc2)n1CCO`, the TGI was > 100 µM.
Turning to `c1cc2nnnn2nc1N1CCCC1`, the TGI was > 100 µM.
As for `N#Cc1c(-c2ccccc2)nc(-c2ccccc2)sc1=S`, the TGI is > 100 µM.
Same read-out and setting: the value for `CCn1nc2c3c(ncn3C(C)(C)O2)c1=O` was > 100 µM.
With `CCC(C#N)NC(=O)NC(C#N)CC` (stereo unspecified), the TGI was > 100 µM.
Still for that read-out and setting: the value for `CCc1ccc2oc(-c3cc(O)c(-c4nc5cc(CC)ccc5o4)cc3O)nc2c1` was > 100 µM; that for `CCOC(=O)/C=C(/C(=O)OCC)n1ccc(N)nc1=O` was > 100 µM; that for `CC(=O)O[C@H]1C#C/C=C\C#CC[C@@H]2C(=O)N[C@@H]12` was 60.9 µM.
Same read-out and setting: the same measure for `CCCSc1ccc2[nH]c(/N=C/c3ccco3)cc2c1`: > 100 µM.
With `Cc1ccc2c(c1)[nH]c1cc(C(F)(F)F)ccc1[p+]2=O` (stereo unspecified), the TGI is > 100 µM.
Same read-out and setting: the same measure for `CN(O)C(=O)c1cccc(Cl)c1`: > 100 µM; for `CCC1(C)N=C(c2cnccn2)NN1c1ccc(Cl)cc1` (stereo unspecified): > 100 µM.
As to `C1CNCCNCCN1`, the TGI is > 100 µM.
Still for that read-out and setting: the value for `O=c1nc2c(c(-c3ccccc3Cl)[nH]1)COC/C2=C\c1ccccc1Cl` was > 100 µM.

In a further assay the test system is SNB-19 CNS. Kind of assay: NCI tumour cell line growth inhibition, 48 h.
In turn, `Cc1ccc(/C(O)=C/C(=O)C(=O)/C=C(\O)c2ccc(C)cc2C)c(C)c1` gave a TGI of 5.67 µM.
Same read-out and setting: the same measure for `O=C(NCCCCCCNCc1cccc2ccccc12)Nc1cccc2ccccc12`: > 100 µM.
The same measure, in the same setting: the same measure for `Cc1ccc([C@H]2CC(=O)C[C@H](c3ccc(C)cc3)C23C(=O)c2ccccc2C3=O)cc1`: 79.7 µM; for `O=c1c2ncn(COCCCl)c2n(-c2ccccc2)c(=S)n1-c1ccccc1`: > 100 µM; for `COc1ccc(/C=N/N=C(\N)NO)c(O)c1`: > 10 µM.
For the compound `CC1(CF)SCc2nc3ccccc3n21` (stereo unspecified), the TGI is > 100 µM.
Regarding `NCCSc1nc2ccccc2c(=O)n1-c1ccccc1`, the TGI was determined as 57.1 µM.
The same measure, in the same setting: the value for `Nc1cccc(Nc2nc3ccccc3nc2NS(=O)(=O)c2ccccc2)c1` was 62.2 µM; that for `COC(=O)C1=CC(=O)OC1(OO)c1ccccc1` (stereo unspecified) was > 100 µM.
In turn, `CN(C)Cc1cc(C(=O)/C=C/c2ccccc2Cl)cc(CN(C)C)c1O` registered a TGI of 27.2 µM.
Same read-out and setting: the same measure for `O=C1NC(N/N=C/C(O)C(O)C(O)CO)=N/C1=C\c1ccco1` (stereo unspecified): > 100 µM.
Take `COc1cc(CNc2ccc(SC)cc2)cc(OC)c1OC`: the GI50 was 25.4 µM and 10.1 µM; the TGI was > 100 µM.
As to `Nc1ccc(N=Nc2ccccc2)cc1`, the TGI is > 100 µM.
Same read-out and setting: the value for `Cc1ccn2c(=O)cc(-c3ccccc3)nc2c1` was > 100 µM; that for `O=c1[nH]nc(Cc2ccc([N+](=O)[O-])cc2)n1CCO` was > 100 µM.
The same measure, in the same setting: the same measure for `c1cc2nnnn2nc1N1CCCC1`: > 100 µM; for `N#Cc1c(-c2ccccc2)nc(-c2ccccc2)sc1=S`: > 100 µM; for `CCn1nc2c3c(ncn3C(C)(C)O2)c1=O`: > 100 µM.
Still for that read-out and setting: the same measure for `CCC(C#N)NC(=O)NC(C#N)CC` (stereo unspecified): > 100 µM; for `CCc1ccc2oc(-c3cc(O)c(-c4nc5cc(CC)ccc5o4)cc3O)nc2c1`: > 100 µM; for `CCOC(=O)/C=C(/C(=O)OCC)n1ccc(N)nc1=O`: > 100 µM.
For the compound `CC(=O)O[C@H]1C#C/C=C\C#CC[C@@H]2C(=O)N[C@@H]12`, the TGI was > 100 µM.
Same read-out and setting: the same measure for `CCCSc1ccc2[nH]c(/N=C/c3ccco3)cc2c1`: > 100 µM; for `Cc1ccc2c(c1)[nH]c1cc(C(F)(F)F)ccc1[p+]2=O` (stereo unspecified): 76.7 µM.
Still for that read-out and setting: the same measure for `CN(O)C(=O)c1cccc(Cl)c1`: > 100 µM.
In the case of `CCC1(C)N=C(c2cnccn2)NN1c1ccc(Cl)cc1` (stereo unspecified), the TGI was > 100 µM.
On the same count and under the same terms, the value for `C1CNCCNCCN1` was > 100 µM.
